Assay results reported in US20090149496A1, “INHIBITORS OF THE TASK-1 AND TASK-3 ION CHANNEL” (SANOFI-AVENTIS DEUTSCHLAND GMBH, priority 2006, published 2009).
Where “and” joins values, the source holds several entries; their conditions need not be identical. Identical values can stand only once. Counter-ions that a name gives are not always drawn.

How the values were obtained:
respiration = assay: Respiratory minute volume in narcotized rats; type: in vivo, rat
Method: (§1) E) Investigation of the Effect on the Electromyographic Activity of the Genioglossus Muscle and the Respiratory Minute Volume in Rats
(§2) The compound of example 1 (R-enantiomer) and of example 2 was investigated for electromyographic activity of the genioglossus muscle and for respiration-stimulating effect on male urethane-chloralose-narcotized, vagotomized rats with a weight of from 250 to 300 g. For this purpose, the genioglossus EMG activity was measured by means of EMG electrodes. The respiration-stimulating effect was investigated by measuring the respiratory minute volume by means of a tracheal cannula. For the investigations, the rats were administered intravenously successively with 1, 3 and 10 mg/kg of the compound of example 1 (R-enantiomer) and of example 2, with glycofurol (50%) as the vehicle, at 15 minute intervals. CO2 was used as the positive control for the stimulation of the genioglossus activity and of the respiratory minute volume.

genioglossus muscle = assay: Electromyographic activity of the genioglossus muscle in narcotized rats; type: in vivo, rat
Method: as §1, §2

TASK1 (mouse) = target: T1, TASK1 (mouse) (Mus musculus, UniProt O35111); assay: Activity on the TASK-1 channel in Xenopus oocytes (two-microelectrode voltage clamp), mouse channel; type: cell-based; details: mouse TASK-1 expressed in Xenopus oocytes, voltage jumps to 40 mV, pH 7.4, room temperature; read-out: IC50 (μmol) TASK1 (mouse)
T1 construct: expressed in transfected cells; host or cells: Xenopus laevis oocytes injected with in vitro synthesized RNA
Method: (§3) A) Determination of the Activity on the TASK-1 Channel in Xenopus Oocytes
(§4) Mouse or human TASK-1 channels were expressed in Xenopus oocytes. For this purpose, oocytes were first isolated from Xenopus levis and defolliculated. Subsequently, TASK-1-encoding RNA synthesized in vitro was injected into these oocytes. After two days of TASK-1 protein expression, TASK-1 currents were measured on the oocytes with the two-microelectrode voltage clamp technique. In this measurement, the TASK-1 channels were generally activated with voltage jumps lasting 250 ms to 40 mV. The bath was flushed with a solution of the following composition: NaCl 96 mM, KCl 2 mM, CaCl2 1.8 mM, MgCl2 1 mM, HEPES 5 mM (titrated to pH 7.4 with NaOH). These experiments were performed at room temperature. For data acquisition and analysis, the following were used: Geneclamp amplifier (Axon Instruments, Foster City, USA) and MacLab D/A converter and software (ADinstruments, Castle Hill, Australia). The inventive substances were tested by adding them to the bath solution in different concentrations. The effects of the substances were calculated as the percentage inhibition of the TASK-1 control current which was obtained when no substance was added to the solution. The data was subsequently fitted to the Hill equation in order to determine the half-maximum inhibitory concentrations (IC50 values) for the particular substances.

TASK1 (human) [1] = target: T2, TASK1 (human) (Homo sapiens, UniProt O14649); assay: Activity on the TASK-1 channel with the FLIPR technique on CHO cells; type: cell-based; design: expressed in transfected cells; host or cells: CHO cells; details: inhibition of human TASK-1 current, 10 μmol/l
Description: B) Determination of the Activity on the TASK-1 Channel with the FLIPR Technique

TASK1 (human) [2] = target: T2, TASK1 (human); assay: Activity on the TASK-1 channel in Xenopus oocytes (two-microelectrode voltage clamp), human channel; type: cell-based; design: expressed in transfected cells; host or cells: Xenopus laevis oocytes injected with in vitro synthesized RNA; details: human TASK-1 expressed in Xenopus oocytes, voltage jumps to 40 mV, pH 7.4, room temperature; read-out: IC50 (μmol) TASK1 (human)
Method: as §3, §4

TASK-1 = details: cited from earlier work; for IC50: stated in the literature, read-out: IC50 value, blocker of TASK-1; for Effect on the TASK-1 channel (in words): therapeutic concentrations, literature

T1 sequence (O35111 whole entry): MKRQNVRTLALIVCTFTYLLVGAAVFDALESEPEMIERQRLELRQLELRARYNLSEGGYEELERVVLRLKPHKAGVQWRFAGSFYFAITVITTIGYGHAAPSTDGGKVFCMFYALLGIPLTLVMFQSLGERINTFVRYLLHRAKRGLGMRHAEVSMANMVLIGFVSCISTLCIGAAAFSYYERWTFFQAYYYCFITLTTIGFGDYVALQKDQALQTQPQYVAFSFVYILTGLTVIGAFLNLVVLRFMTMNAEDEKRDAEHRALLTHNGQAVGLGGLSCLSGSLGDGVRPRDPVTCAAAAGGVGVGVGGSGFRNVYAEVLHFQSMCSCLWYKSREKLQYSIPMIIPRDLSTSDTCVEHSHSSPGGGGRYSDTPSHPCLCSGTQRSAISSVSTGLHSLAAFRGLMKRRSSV
T2 sequence (O14649 whole entry): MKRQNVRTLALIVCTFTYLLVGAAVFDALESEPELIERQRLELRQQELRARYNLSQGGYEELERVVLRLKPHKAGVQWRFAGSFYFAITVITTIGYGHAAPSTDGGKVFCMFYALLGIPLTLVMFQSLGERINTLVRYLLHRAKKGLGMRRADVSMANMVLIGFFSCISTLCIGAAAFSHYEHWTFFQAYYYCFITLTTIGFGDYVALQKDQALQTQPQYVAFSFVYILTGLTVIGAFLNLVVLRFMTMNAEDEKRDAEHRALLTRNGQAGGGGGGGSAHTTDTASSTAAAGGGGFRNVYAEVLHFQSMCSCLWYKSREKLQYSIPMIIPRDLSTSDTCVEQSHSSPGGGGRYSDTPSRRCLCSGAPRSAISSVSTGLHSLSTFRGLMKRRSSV

| SMILES | IC50 (TASK1 (mouse)) | inhibition at 10 µM (TASK1 (human) [1]) | also measured |
| --- | --- | --- | --- |
| O=C=O [CO2, reference compound] |  |  | Respiratory minute volume (mean) (respiration; 5% CO2 positive control): 237 mL/min and 209 mL/min; EMG activity of the genioglossus muscle (mean) (genioglossus muscle; 5% CO2 positive control): 5.13 arbitrary units and 3.15 arbitrary units |
| CCCCS(=O)(=O)Nc1ccccc1C(=O)N[C@@H](CC)c1ccc(OC)nc1 [Example 1 (S-enantiomer), 2-(butyl-1-sulfonylamino)-N-[1(S)-(6-methoxypyridin-3-yl)propyl]benzamide] | 800 nM | 58% |  |
| CC[C@H](NC(=O)c1cc(F)ccc1NS(=O)(=O)c1cccc2cccnc12)c1ccccc1 [Example 3, (S)-5-Fluoro-2-(quinoline-8-sulfonylamino)-N-(1-phenylpropyl)benzamide sodium salt] |  | 82% |  |
| CC[C@H](NC(=O)c1cc(OC)ccc1NS(=O)(=O)c1ccc(OC)cc1)c1ccccc1 [Example 4, (S)-5-Methoxy-2-(4-methoxybenzenesulfonylamino)-N-(1-phenylpropyl)benzamide] | 650 nM |  |  |
| CCCCC/C=C\C/C=C\C/C=C\C/C=C\CCCC(=O)NCCO [anandamide] |  |  | IC50 (TASK-1): 700 nM |
| CCN1CC(CCN2CCOCC2)C(c2ccccc2)(c2ccccc2)C1=O (stereo not shown) [doxapram] |  |  | IC50 (TASK-1): 400 nM |
| FC(F)(F)C(Cl)Br (stereo not shown) [halothane] |  |  | Effect on the TASK-1 channel (in words) (TASK-1): activation |
| FC(F)OC(Cl)C(F)(F)F (stereo not shown) [isoflurane] |  |  | Effect on the TASK-1 channel (in words) (TASK-1): activation |
| CCCCC/C=C\C/C=C\C/C=C\C/C=C\CCCC(=O)N[C@H](C)CO [methanandamide] |  |  | IC50 (TASK-1): 700 nM |

The next lines start with results.

| IC50 (TASK1 (mouse)) | inhibition at 10 µM (TASK1 (human) [1]) | SMILES | also measured |
| --- | --- | --- | --- |
| 430 nM | 77% | COc1ccc(CC(=O)NCc2ccccc2-c2ccccc2C(=O)NCCc2cccnc2)cc1 [Example 2, N-(2-pyridin-3-ylethyl)-2′-{[2-(4-methoxyphenyl)acetylamino]-methyl}biphenyl-2-carboxamide] | Respiratory minute volume (mean) (respiration; 1 mg/kg intravenously): 253 mL/min; Respiratory minute volume (mean) (respiration; 3 mg/kg intravenously): 279 mL/min; Respiratory minute volume (mean) (respiration; 10 mg/kg intravenously): 291 mL/min; Effect on the respiratory minute volume (in words) (respiration; summary of tables 3 and 5): stimulate; IC50 (TASK1 (human) [2]): 570 nM; EMG activity of the genioglossus muscle (mean) (genioglossus muscle; 1 mg/kg intravenously): 3.15 arbitrary units; EMG activity of the genioglossus muscle (mean) (genioglossus muscle; 3 mg/kg intravenously): 3.55 arbitrary units; EMG activity of the genioglossus muscle (mean) (genioglossus muscle; 10 mg/kg intravenously): 3.82 arbitrary units; Effect on the electromyographic activity of the genioglossus muscle (in words) (genioglossus muscle; summary of tables 2 and 4): stimulate |
| 2080 nM | 88% | C[C@H](OC(=O)NCc1ccccc1-c1ccccc1C(=O)NC[C@@H](C)O)c1ccccc1 [Example 5, N-(2-(R)-hydroxypropyl)-2′-(α-(S)-methylbenzyloxycarbonyl-aminomethyl)biphenyl-2-carboxamide] |  |
| 1150 nM | 68% | COc1ccc(CC(=O)NCc2ccccc2-c2cc(Cl)ccc2C(=O)NCc2ccc(F)cc2F)cc1 [Example 6, N-(2,4-Difluorobenzyl)-5-chloro-2′-{[2-(4-methoxyphenyl)acetyl-amino]methyl}biphenyl-2-carboxamide] |  |
| 1060 nM | 57% | CN(CCc1ccccn1)C(=O)c1ccccc1-c1ccccc1CNC(=O)OCc1ccccc1 [Example 7, Benzyl {2′-[methyl-(2-pyridin-2-ylethyl)carbamoyl]biphenyl-2-ylmethyl}carbamate] |  |
| 550 nM | 77% | COc1ccc(CC(=O)NCc2ccccc2-c2ccsc2C(=O)NCc2ccc(F)cc2F)cc1 [Example 8, N-(2,4-Difluorobenzyl)-3-(2-{[2-(4-methoxyphenyl)acetyl-amino]methyl}phenyl)thiophene-2-carboxamide] |  |
| 2370 nM | 60% | COc1ccc(CC(=O)NCc2ccccc2-c2ccc(C(=O)NCc3ccc(F)cc3F)o2)cc1 [Example 9, N-(2,4-Difluorobenzyl)-5-(2-{[2-(4-methoxyphenyl)acetyl-amino]methyl}phenyl)furan-2-carboxamide] |  |
| 1190 nM | 61% | COc1ccc(CC(=O)NCc2ccccc2-c2occc2C(=O)NCCC(C)C)cc1 [Example 10, N-(3-methylbutyl)-2-(2-{[2-(4-methoxyphenyl)acetyl-amino]methyl}phenyl)furan-3-carboxamide] |  |
| 350 nM | 88% | COc1ccc(CC(=O)NCc2ccccc2-c2sccc2C(=O)NCc2ccc(F)cc2F)cc1 [Example 11, N-(2,4-Difluorobenzyl)-2-(2-{[2-(4-methoxyphenyl)acetyl-amino]methyl}phenyl)thiophene-3-carboxamide] |  |
| 3360 nM | 73% | C[C@H](OC(=O)NCc1ccccc1-c1cccnc1C(=O)NCCc1ccccn1)c1ccccc1 [Example 12, (S)-1-Phenylethyl {2-[2-(2-pyridin-2-ylethylcarbamoyl)pyridin-3-yl]benzyl}carbamate] |  |
| 2900 nM | 50% | O=C(NCc1ccccc1-c1ncccc1C(=O)NCc1ccc(F)cc1F)OCc1ccccc1 [Example 14, Benzyl {2-[3-(2,4-Difluorobenzylcarbamoyl)pyridin-2-yl]benzyl}carbamate] |  |
| 1830 nM | 70% | CC(C)CCNC(=O)c1cccc(-c2ccncc2CNC(=O)OCc2ccccc2)c1 [Example 15, Benzyl {4-[3-(3-methylbutylcarbamoyl)phenyl]pyridin-3-yl-methyl}carbamate] |  |
| 2770 nM |  | COc1ccc(CCC(=O)NCc2ccccc2-c2cc(C(=O)NCCC(C)C)ccc2C)cc1 [Example 16, N-(3-Methylbutyl)-2′-{[3-(4-methoxyphenyl)propionylamino]methyl}-6-methylbiphenyl-3-carboxamide] |  |
